Measurements from patent US8987212B2, “Oleanoyl peptide composition and method of treating skin aging” (priority 2007, dated 2015).
≈ marks a conversion by molar mass, not a printed value. Where a SMILES comes first, the peptide text is derived from it. The star is where a group is joined. Palmitoyl = CCCCCCCCCCCCCCCC(=O)*

What was measured:
[1] = tested on: B16F1 mouse melanoma cells; assay: Melanin inhibition in α-MSH induced melanoma cells; format: cell-based; conditions: α-MSH induced, 9 days; for IC50: Mus musculus, B16-F1, 216 h, read-out: Melanin inhibition IC50 (μg/ml), Individual active
Description: B16F1 mouse melanoma cells were seeded in a 6 well microtiter plate at a seeding density of 5000 cells per well in 2 ml DMEM medium per well. After 24 hours of incubation in a CO2 incubator, melanin production is induced by 0.1 nM ∝-MSH by replacing the medium with medium containing ∝-MSH. The cells were then treated with varying concentrations of sample (composition containing oleanoyl peptide and stilbenes/licorice extract/THC) over a period of 9 days with renewal of ∝-MSH containing medium and sample at regular intervals of 3 days. Control wells were maintained without sample treatment and only with the vehicle used for sample preparation. After the incubation period, the medium was removed and the cells were scraped and washed in PBS. Thereafter, melanin was extracted by 1N NaOH in boiling water bath for 5 minutes. The absorbance of the melanin extract was read at 405 nm in a microplate reader. The inhibitory effect of the sample is calculated based on the decrease of melanin formation.
T=absorbance due to melanin in the presence of inhibitor

[2] = biological target: Collagenase Type IV from Clostridium histolyticum; conditions: for Collagenase inhibition, % inhibition: at 500 μg/ml
[3] = tested on: Human osteosarcoma cells; assay: Collagen enhancement by Sirius Red staining; format: cell-based
Description: Collagen enhancement was determined by using Sirius Red stain that binds with a greater specificity to Collagen type I and Collagen type III of the extracellular matrix. The stain bound to the collagen is dissolved and the optical density (OD) is measured spectrophotometrically using a Fluostar optima microtiter plate reader at 544 nm. The OD of the stain bound to collagen is directly proportional to the collagen content in the cells.
Human osteosarcoma cells from human bone were used for collagen enhancement studies. The cells were seeded with a seeding density of 10000 cells per well of a 24 well plate. Confluent monolayers of cells were initially treated with varying non cytotoxic concentrations of Oleanoyl peptide and vehicle (control) in the culture medium. For each concentration, 4 replicates were maintained and the analysis was performed twice such that the ‘n’ value is 8. After sample treatment, the cells were incubated in a CO2 incubator for 48 hrs. The cells were then developed by Sirius red staining technique to analyze the collagen enhancement. The cells were washed extensively with PBS. The cells were fixed using Bouin's fluid containing 1.3% picric acid, 35% formaldehyde and glacial acetic acid in 15:5:1 ration by incubating with 1 ml of Bouin's fluid per well for 1 hr at RT. The fixative is then removed by suction with micropipette and the cells were washed under running tap water for 15 minutes. After air drying the culture plate, the cells were stained using 0.1% Sirius red stain in 1.3% picric acid. 1 ml per well Sirius red stain was added and the cells were incubated for 1 hr under mild shaking of 70 RPM at RT in Orbitek Shaker. The stain was then removed by suction and the cells were extensively washed with 0.01N HCl to remove unbound dye. The dye bound to collagen was then dissolved in 0.2 ml of 0.1N NaOH per well for 30 minutes under mild shaking of 70 RPM in Orbitek Shaker at RT. The dye was then transferred to 96 well microplate and the OD was read at 544 nm in Fluostar Optima microplate reader.
The percentage enhancement in collagen with respect to the untreated cells considering the OD of untreated cells as optimal under normal conditions is calculated as follows, % enhancement in […]=[(100/C)×T]−100 Where C=absorbance due to collagen in untreated cells
T=absorbance due to collagen in sample treated cells

[4] = tested on: LTB4; assay: LTB4 inhibition (same procedure as TNF α); format: cell-based, human; conditions: result in words
Source text: The above procedure is also followed for determining LTB4 inhibition by Oleanoyl peptide. From the results tabulated in table 1, it is clear that Oleanoyl peptide is a better TNF α and LTB4 inhibitor.

[5] = DPPH free radical scavenging assay; conditions: result in words
Description: The DPPH assay is often used to evaluate the ability of antioxidants to scavenge free radicals which are known to be a major factor in biological damages caused by oxidative stress. This assay is known to give reliable information concerning the antioxidant ability of the tested compounds. The assay is based on the color change of the stable free radical DPPH from purple to yellow as the radical is quenched by the antioxidant.
The assay mixture tubes containing 1.5 ml of 0.1 mM DPPH methanolic solution and varying concentrations of the sample in a total volume of 3 ml were incubated at 37° C. for 30 minutes in a shaking water bath. The reduction in absorbance which is directly proportional to the radical scavenging is measured spectrophotometrically at 517 nm. […] The percentage of scavenging is calculated as follows, % scavenging=[(C−T)/C]×100 Where C=absorbance in the absence of inhibitor
T=absorbance in the presence of inhibitor

[6] = tested on: TNF α; assay: TNF α inhibition in LPS-stimulated human whole blood (ELISA); format: cell-based; conditions: for TNF α inhibition (IC50 μg/ml): human whole blood, LPS 1 ng/mL
Source text: For TNF α inhibitory study, human whole blood is used. In whole blood assay, monocytes appear to be the main source of TNF-α on lipopolysaccharide (LPS) stimulation. Monocyte and macrophages are a major source of TNF-α in addition to other cell types like eosinophils, mast cells, peripheral lymphocytes and granulocytes. The activation of inflammatory cells is influenced by the intracellular levels of c-AMP which are regulated by the phosphodiesterase isoenzyme. […] After stimulation, the assay employs the quantitative sandwich enzyme immunoassay technique. A monoclonal antibody specific for TNF-α has been pre-coated onto a microplate. TNF-α present in the sample is bound by the immobilized antibody. After washing away any unbound substances, an enzyme-linked polyclonal antibody specific for TNF-α is added. Following a wash to remove any unbound antibody-enzyme reagent, a substrate solution is added to the wells and colour develops in proportion to the amount of TNF-α bound in the initial step. The colour development is stopped and the intensity of the colour is directly proportional to the TNF-α content.
Heparinized blood from healthy donors was diluted 1:3 in RPMI 1640 culture medium containing 10% FBS. […] 0.1% DMSO was used as vehicle for water insoluble samples. After pre-incubation, the whole blood cells were stimulated by 1 ng/mL LPS for the release of TNF α from the macrophages by incubating for 5 hr at 37° C. in an incubator with 5% COP. The samples were then centrifuged at 3000 g for 3 minutes at 4° C. and the supernatant was assayed for TNF α content by using the TNF α Elisa kit. 200 μL of supernatant from all the tubes was transferred into microtiter plate in respective wells (Pre-coated mouse monoclonal antibody microplate) followed by the addition of 50 μL of assay diluents in all the wells. After incubation for 2 hr at room temperature, the wells were washed thoroughly with wash buffer provided and then 200 μL of conjugate was added to each well. The plate was incubated for 2 hr at room temperature. After washing again, 200 μL of substrate solution was added to each well and incubated for 20 minutes at room temperature. 50 μL of Stop Solution to each well which will cause the colour change in the wells from blue to yellow was added. The optical density was read at 450 nm which is directly proportional to TNF α content and the percentage of inhibition of TNF α content on treatment with sample was calculated with respect to that of the untreated cells.
T=absorbance due to TNF α in the presence of inhibitor

[7] = biological target: porcine pancreatic elastase (Sus scrofa, UniProt P00772); assay: EnzChek Elastase Assay, elastase inhibitory potential; conditions: for Elastase inhibition (IC50 μg/ml): porcine pancreatic elastase 0.1 U/ml, DQ Elastin, 30 minutes
Source text: The EnzChek kit contains DQelastin, fluorescein conjugated soluble bovine neck ligament elastin. This substrate is efficiently digested by elastase to yield highly fluorescent peptides. […] Elastase used for the assay is purified from porcine pancreas.
T=absorbance due to elastase activity in the presence of inhibitor

[8] = tested on: Interleukin-1beta (IL-1β); assay: Extracellular IL-1β from LPS-challenged human neutrophils; format: cell-based; conditions: test sample 100 μg/ml
Description: (§1) Experimental observations were made in human neutrophil that were challenged with LPS. […] Rolipram at 100 μg/ml dose level was used as a standard drug to observe the authenticity and reproducibility of the experimental design.

[9] = tested on: Nitric Oxide (NO); assay: Extracellular nitric oxide from LPS-challenged human neutrophils; format: cell-based; conditions: test sample 100 μg/ml
Description: as §1
(§2) The Oleanoyl peptide was also screened for NO and PGE2 expression.

[10] = tested on: Prostaglandin E2 (PGE2); assay: Extracellular PGE2 from LPS-challenged human neutrophils; format: cell-based; conditions: test sample 100 μg/ml
Description: as §1, §2

[11] = tested on: Interleukin-6 (IL-6); assay: Extracellular IL-6 from LPS-challenged human neutrophils; format: cell-based; conditions: test sample 100 μg/ml
Description: as §1

[12] = at 1.25 ppm, 48 hrs, vs untreated cells

porcine pancreatic elastase, sequence (P00772 27-266): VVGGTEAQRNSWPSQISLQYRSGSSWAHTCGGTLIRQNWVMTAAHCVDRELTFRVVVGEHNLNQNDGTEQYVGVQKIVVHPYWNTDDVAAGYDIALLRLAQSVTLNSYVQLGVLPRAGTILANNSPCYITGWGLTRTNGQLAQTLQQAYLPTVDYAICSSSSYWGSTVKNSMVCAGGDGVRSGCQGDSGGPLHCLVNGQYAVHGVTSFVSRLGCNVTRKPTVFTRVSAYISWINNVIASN

**Q.** With `Oc1ccc(C=Cc2cc(O)cc(O)c2)cc1` [Resveratrol] as the compound, how does the IC50 [1] read?
**A.** The IC50 was 3 ± 0.2 µg/mL (≈ 13.1 µM).

**Q.** For `COc1cc(/C=C/c2ccc(O)cc2)cc(OC)c1` [Pterostilbene], which IC50 [1] is on record?
**A.** The IC50 was 0.6 ± 0.1 µg/mL (≈ 2.34 µM).

**Q.** With `CC1(C)CC[C@]2(C(=O)O)CC[C@]3(C)C(=CC[C@@H]4[C@@]5(C)CC[C@H](O)C(C)(C)[C@@H]5CC[C@]43C)[C@@H]2C1` [Oleanolic acid] as the compound, how does the “Collagenase inhibition (IC50 μg/ml)” value ([2]; Collagenase Type IV 0.2 U/ml, DQ gelatin, 30 minutes) read?
**A.** Its value is 129 µg/mL.

**Q.** And the enhancement in collagen ([3]; result in words, concentration not given)?
**A.** The enhancement in collagen was “did not show any enhancement”.

**Q.** What about the LTB4 inhibition [4] of the same compound?
**A.** The LTB4 inhibition was “Nil”.

**Q.** And the “Anti-oxidant activity by DPPH Method” value [5]?
**A.** The value was “Nil”.

**Q.** And the inhibition at 100 µg/mL ([6]; Homo sapiens, at 100 μg/ml)?
**A.** The inhibition at 100 µg/mL was 17%.

**Q.** For `CCCCCCCCCCCCCCCC(=O)N[C@@H](CCCCN)C(=O)N[C@H](C(=O)N[C@H](C(=O)N[C@@H](CCCCN)C(=O)N[C@@H](CO)C(=O)O)[C@@H](C)O)[C@@H](C)O` [Pal-Lys-Thr-Thr-Lys-Ser, palmitoyl-lysyl-threonyl-threonyl-lysyl-serine] (Palmitoyl-KTTKS-OH), which “Collagenase inhibition, % inhibition” value [2] is on record?
**A.** The value was 38%.

**Q.** And the enhancement in collagen [3, 12]?
**A.** The enhancement in collagen was 11%.

**Q.** And the inhibition at 500 µg/mL ([7]; read-out: Elastase inhibition, % inhibition)?
**A.** Its inhibition at 500 µg/mL is 16%.

**Q.** And the LTB4 inhibition [4]?
**A.** The LTB4 inhibition was “Nil”.

**Q.** And the “Anti-oxidant activity by DPPH Method” value [5]?
**A.** The value was “Nil”.

**Q.** And the “TNF α inhibition (IC50 μg/ml)” value [6]?
**A.** The value was “Nil”.

**Q.** Which “Collagenase inhibition, % inhibition” value [2] does the source give for `C[C@@H](O)[C@H](NC(=O)[C@@H](NC(=O)[C@@H](N)CCCCN)[C@@H](C)O)C(=O)N[C@@H](CCCCN)C(=O)N[C@@H](CO)C(=O)O` [Peptide of SEQ ID No. 1, Lysyl-Threonyl-Threonyl-Lysyl-Serine] (H-KTTKS-OH) here?
**A.** Its value is 24%.

**Q.** And the enhancement in collagen [3, 12]?
**A.** Its enhancement in collagen is 5%.

**Q.** And the “Elastase inhibition (IC50 μg/ml)” value [7]?
**A.** Its value is “Nil”.

**Q.** What about the “Elastase inhibition (IC50 μg/ml)” value ([7]; listed as peptide of SEQ ID NO: 1) of the same compound?
**A.** Its value is “did not show elastase inhibition”.

**Q.** What about the LTB4 inhibition [4] of the same compound?
**A.** Its LTB4 inhibition is “Nil”.

**Q.** And the “Anti-oxidant activity by DPPH Method” value [5]?
**A.** Its value is “Nil”.

**Q.** And the “TNF α inhibition (IC50 μg/ml)” value [6]?
**A.** Its value is “Nil”.

**Q.** For `Oc1cc(O)cc(/C=C/c2ccc(O)cc2O)c1` [Oxyresveratrol], which IC50 [1] is on record?
**A.** The IC50 was 8 ± 1.2 µg/mL (≈ 32.8 µM).

**Q.** For `COc1cc(/C=C/c2ccc(O)c(O)c2)cc(OC)c1` [3Hydroxypterostilbene], which “Melanin inhibition IC50 (μg/ml), Individual active” value [1] is on record?
**A.** Its value is 0.8 ± 0.22 µg/mL.

**Q.** Which results are given for `COc1ccc(C2CNC(=O)C2)cc1OC1CCCC1` (stereo not drawn) [Rolipram, reference compound]?
**A.** Concentration of IL-1β produced (pg/ml) Mean ± S.E. [8]: 67.52 ± 2.07 pg/mL; % activity IL-1β expression against LPS control ([8]; ↓ = inhibition): 51.62↓ %; Concentration of NO produced (μmol/ml) Mean ± S.E. [9]: 24.83 ± 2.07 µmol/mL; % activity NO expression against LPS control ([9]; ↓ = inhibition): 43.98↓ %; Concentration of PGE2 produced (pg/ml) Mean ± S.E. [10]: 265.71 ± 10.09 pg/mL; % activity PGE2 expression against LPS control ([10]; ↓ = inhibition): 65.44↓ %; Concentration of IL-6 produced (pg/ml) Mean ± S.E. [11]: 72.65 ± 2.07 pg/mL; % activity IL-6 expression against LPS control ([11]; ↓ = inhibition): 48.92↓ %
